This passage reports viability and EC50 results from patent US10577362B2, “Substituted 2, 4-diamino-quinoline derivatives for use in the treatment of proliferative diseases” (GENOSCIENCE PHARMA, priority 2016, dated 2020).

Common to all, as to assay type: cell-based, human
Experiment [1] relates to MOLM-14 (acute myeloid leukemia) cell line. In words: CellTiter-Glo luminescent cell viability assay, MOLM-14. The settings on record: Homo sapiens; for viability at 4 µM: MOLM-14, compound at 4 μM; for viability at 4 µM / viability at 10 µM: 72 h; for viability at 10 µM: MOLM-14, compound at 10 μM; for pEC50: MOLM-14 cell line, 72 h incubation, CellTiter-Glo, read-out: EC50, growth inhibition of MOLM-14. The method in brief: (§1)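 Cells were cultured at 37 °C, 5% CO2 with 10% FBS; adherent lines were plated overnight, suspension MOLM-14 plated 1 h before dosing. Compounds in H2O or DMSO were added at various concentrations for 72 h, and viability was read by luminescence. EC50 is the dose reducing signal to 50% of diluent control.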
(ATP-based viability assays read luminescence as a measure of living cells.)

Experiment [2] relates to A375 (malignant melanoma) cell line. In words: CellTiter-Glo luminescent cell viability assay, A375. The following applies: Homo sapiens, A-375; for viability at 4 µM: A375, compound at 4 μM; for viability at 4 µM / viability at 10 µM: 72 h; for viability at 10 µM: A375, compound at 10 μM; for pEC50: A375 cell line, 72 h incubation, CellTiter-Glo, read-out: EC50, growth inhibition of A375. A digest of the protocol:
(§2)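 72 h compound exposure, 37 °C, 5% CO2, 10% FBS medium; ATP luminescence read after 30 min RT equilibration. Viability as % of H2O/DMSO diluent control; EC50 = dose giving 50% of control signal. Duplicate points minimum.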

Experiment [3] concerns HCT-116 (colorectal carcinoma) cell line. Kind of experiment: CellTiter-Glo luminescent cell viability assay, HCT-116. The settings on record: Homo sapiens; for viability at 4 µM: HCT-116, compound at 4 μM; for viability at 4 µM / viability at 10 µM: 72 h; for viability at 10 µM: HCT-116, compound at 10 μM; for pEC50: HCT-116 cell line, 72 h incubation, CellTiter-Glo, read-out: EC50, growth inhibition of HCT-116. The method in brief: as §2

The subject of experiment [4] is Huh7 (hepatocellular carcinoma) cell line. Kind of experiment: CellTiter-Glo luminescent cell viability assay, Huh7. The following applies: Homo sapiens, Huh-7; for viability at 4 µM: Huh7, compound at 4 μM; for viability at 4 µM / viability at 10 µM: 72 h; for viability at 10 µM: Huh7, compound at 10 μM; for pEC50: Huh7 cell line, 72 h incubation, CellTiter-Glo, read-out: EC50, growth inhibition of Huh7. The method in brief: as §1

In experiment [5] the test system is 786-O (renal adenocarcinoma) cell line. Kind of experiment: CellTiter-Glo luminescent cell viability assay, 786-O. The settings on record: Homo sapiens, 786-0; for viability at 4 µM / viability at 10 µM: 786-O, 72 h; for viability at 4 µM: compound at 4 μM; for viability at 10 µM: compound at 10 μM; for pEC50: 786-O cell line, 72 h incubation, CellTiter-Glo, read-out: EC50, growth inhibition of 786-O. The method in brief: as §2

Experiment [6] deals with HepG2 (hepatocellular carcinoma) cell line. In words: CellTiter-Glo luminescent cell viability assay, HepG2. The settings on record: Homo sapiens; for viability at 4 µM / viability at 10 µM: HepG2, HepG, 72 h; for viability at 4 µM: compound at 4 μM; for viability at 10 µM: compound at 10 μM; for pEC50: HepG2 cell line, 72 h incubation, CellTiter-Glo, read-out: EC50, growth inhibition of HepG2. A digest of the protocol:
as §1

pEC50: −log10 of the molar value. Counter-ions that a name gives are not always drawn.

By viability is commonly meant a read-out of living cells in per cent, often relative to untreated cells. On to `Cc1c(Nc2cccc(Nc3nccc(C(F)(F)F)n3)c2)nc2ccccc2c1N1CCC(NC(C)(C)C)CC1` [Compound 540Me, 2-[3-(4-trifluoromethylpyrimidin-2-ylamino)phenylamino]-3-methyl-4-(4-tert-butylaminopiperidin-1-yl)quinoline], for which the viability at 4 µM in experiment [1] was determined as 63.1%; in experiment [2], 1.6%; in experiment [3], 0.4%; in experiment [4] it was 63.9%; in experiment [5], 2.6%; in experiment [6] it was 38.3%. The viability at 10 µM in experiment [1] is 0.3%; in experiment [2], 0.1%; in experiment [3], 0.1%; in experiment [4], 0.2%; in experiment [5] it was 0.1%; in experiment [6], 0.1%.

In general, pEC50 refers to −log10 of the EC50, conventionally taken in molar units. For the compound `Cc1ccc2c(N3CCC(NC(C)(C)C)CC3)cc(NCc3ccc(Cl)cc3)nc2c1F` [Compound 564, 2-(4-chlorobenzylamino)-4-[4-(tert-butylamino)piperidin-1-yl]-7-methyl-8-fluoroquinoline], the pEC50 is 5.30 to 6.30 in experiment [1]; 5.30 to 6.30 in experiment [2]; 5.30 to 6.30 in experiment [3]; 5.00 to 5.30 in experiment [4]; 5.30 to 6.30 in experiment [5]; 5.30 to 6.30 in experiment [6].

Consider `Cc1ccc(Nc2nc3ccccc3c(N3CCC(NC(C)(C)C)CC3)c2C#N)cc1` [Compound 3248CN, 2-(4-methylphenylamino)-3-cyano-4-[4-(tert-butylamino)piperidin-1-yl]quinoline], for which the viability at 4 µM stood at 88.5% in experiment [1]; 79.2% in experiment [2]; 88.9% in experiment [3]; 89.3% in experiment [4]; 100% in experiment [5]; 109% in experiment [6]. The viability at 10 µM in experiment [1] was found to be 53.4%; in experiment [2], 0.4%; in experiment [3], 0.5%; in experiment [4], 56.3%; in experiment [5] it was 27.7%; in experiment [6] it was 73.1%.

As for `N#Cc1c(NCc2ccc(Cl)cc2)nc2ccccc2c1N1CCC(Oc2ccccc2)C1` (stereo not drawn) [Compound 3330CN, 2-(4-chlorobenzylamino)-3-cyano-4-(3-phenoxypyrrolidin-1-yl)quinoline], the viability at 4 µM turned out to be 102% in experiment [1]; 92.9% in experiment [2]; 76.8% in experiment [3]; 70.6% in experiment [4]; 30.4% in experiment [5]; 99.4% in experiment [6]. In addition, the viability at 10 µM in experiment [1] came out at 93.6%; in experiment [2], 82.4%; in experiment [3] it was 49.7%; in experiment [4], 33.7%; in experiment [5], 19%; in experiment [6] it was 80.4%.

`CN(Cc1ccc(Cl)cc1)c1cc(N2CCC(NC(C)(C)C)CC2)c2ccccc2n1` [Compound 212, 2-(N-4-chlorobenzyl-N-methylamino)-4-[4-(tert-butylamino)-piperidin-1-yl]-quinoline, Hydrochloride Salt]: the pEC50 is 5.00 to 5.30 in experiment [1]; 5.30 to 6.30 in experiment [2]; 5.30 to 6.30 in experiment [3]; 5.00 to 5.30 in experiment [4]; 5.00 to 5.30 in experiment [5]; 5.30 to 6.30 in experiment [6].

In the case of `N#Cc1c(NCc2ccc(Cl)cc2)nc2ccccc2c1N1CCCC(Oc2ccc(F)cc2)C1` (stereo not drawn) [Compound 3238CN, 2-(4-chlorobenzylamino)-3-cyano-4-[3-(4-fluorophenoxy)piperidin-1-yl]quinoline], the viability at 4 µM was determined as 101% in experiment [1]; 106% in experiment [2]; 97.8% in experiment [3]; 97.7% in experiment [4]; 90.7% in experiment [5]; 95.9% in experiment [6]. Also, the viability at 10 µM turned out to be 91.6% in experiment [1]; 102% in experiment [2]; 85.1% in experiment [3]; 93.7% in experiment [4]; 86.1% in experiment [5]; 90.8% in experiment [6].

For the compound `N#Cc1c(NCc2ccc(Cl)cc2)nc2ccccc2c1N1CCC(N2CCOCC2)CC1` [Compound 202CN, 2-(4-chlorobenzylamino)-3-cyano-4-[4-(morpholino)piperidin-1-yl]quinoline], the viability at 4 µM in experiment [1] was determined as 112%; in experiment [2], 96.9%; in experiment [3], 65.8%; in experiment [4], 83.6%; in experiment [5], 66.3%; in experiment [6], 80.2%. The viability at 10 µM in experiment [1] turned out to be 64.2%; in experiment [2] it was 79.2%; in experiment [3], 33.5%; in experiment [4] it was 56.1%; in experiment [5], 51.9%; in experiment [6] it was 51.1%.

With `COc1ccc(OC2CCN(c3c(C#N)c(NCc4ccc(Cl)cc4)nc4ccccc34)CC2)cc1` [Compound 3224CN, 2-(4-chlorobenzylamino)-3-cyano-4-[4-(4-methoxyphenoxy)piperidin-1-yl]quinoline], the viability at 4 µM turned out to be 112% in experiment [1]; 96% in experiment [2]; 89.8% in experiment [3]; 116% in experiment [4]; 96.3% in experiment [5]; 91.6% in experiment [6]. Further, the viability at 10 µM in experiment [1] turned out to be 94.6%; in experiment [2] it was 91.7%; in experiment [3], 65.1%; in experiment [4], 90%; in experiment [5], 88.9%; in experiment [6], 70%.

Regarding `CC(C)(C)NC1CCN(c2c(F)c(Nc3cccc(Nc4nccc(C(F)(F)F)n4)c3)nc3ccccc23)CC1` [Compound 540F, 2-[3-(4-trifluoromethylpyrimidin-2-ylamino)phenylamino]-3-fluoro-4-(4-tert-butylaminopiperidin-1-yl)quinoline], the viability at 4 µM stood at 8.8% in experiment [1]; 0.4% in experiment [2]; 0.4% in experiment [3]; 43.3% in experiment [4]; 0.8% in experiment [5]; 0.3% in experiment [6]. The viability at 10 µM was 0.3% in experiment [1]; 0.3% in experiment [2]; 0.3% in experiment [3]; 59.4% in experiment [4]; 0.3% in experiment [5]; 0.2% in experiment [6].

On to `Cc1cc(C)nc(Nc2ccc(Nc3nc4ccccc4c(N4CCC(NC(C)(C)C)CC4)c3C#N)cc2)n1` [Compound 3276CN, 2-{4-[(4,6-dimethylpyrimidin-2-yl)amino]phenylamino}-3-cyano-4-[4-(tert-butylamino)piperidin-1-yl]quinoline], for which the viability at 4 µM in experiment [1] was 51.9%; in experiment [2], 2.9%; in experiment [3] it was 0.9%; in experiment [4], 41.2%; in experiment [5], 4.5%; in experiment [6], 38.5%. Moreover, the viability at 10 µM in experiment [1] was found to be 1%; in experiment [2], 1%; in experiment [3], 0.9%; in experiment [4], 1%; in experiment [5], 0.9%; in experiment [6], 0.9%. The pEC50 in experiment [1], in experiment [2], in experiment [3], in experiment [4], in experiment [5] and in experiment [6] was 5.30 to 6.30 throughout.

On to `Clc1ccc(CNc2cc(N3CCC(Oc4ccncc4)CC3)c3ccccc3n2)cc1` [Compound 2950, 2-(4-chlorobenzylamino)-4-[4-(pyridin-4-yloxy)piperidin-1-yl]quinoline hydrochloride], for which the pEC50 in experiment [1], in experiment [2], in experiment [3], in experiment [4], in experiment [5] and in experiment [6] was 5.30 to 6.30 in each case.
